Data set [1] deals with PD-L1. The experiment in a line: Western blot of IFN-γ-induced PD-L1 expression (A549, HepG-2, MCF-7). The class given is cell-based. As to conditions: ME-2 and IFN-γ co-acted on cells. The procedure: (§1) The tumor cells in question were non-small cell lung cancer NCI-H157, mouse lung cancer LLC, colon cancer SW620, human osteosarcoma U2OS, non-small cell lung cancer A549, liver cancer HepG-2, and breast cancer MCF-7. The total protein of the above cells was extracted; the protein concentration was determined by bicinchoninic acid (BCA) assay. The samples were loaded and subjected to sodium dodecyl sulfate (SDS) polyacrylamide gel electrophoresis (SDS-PAGE); the membrane was blocked and immunoreacted after transfer, and an enhanced chemiluminescence (ECL) solution was used for development. Picture processing and gray value analysis were performed on the exposure results on ImageJ software. According to the experimental results, the cell lines with high expression of PD-L1 were selected as follows: NCI-H157, LLC, U2OS, and SW620; and the cell lines with low or no expression of PD-L1 were A549, HepG-2, and MCF-7 (see FIGS. 3A and 3B).
Interferon IFN-γ is an important factor in inducing PD-L1 expression in the tumor immune microenvironment. We used low-expression PD-L1 tumor cells (non-small cell lung cancer A549, liver cancer HepG-2, and breast cancer MCF-7). ME-2 and IFN-γ were co-acted on cells; their expression abundance was detected by the Western blot method, and the experimental method was shown above.

Data set [2] addresses PD-1 protein (Homo sapiens, UniProt Q15116). The data set can be described thus: SPR affinity analysis with PD-1 protein. The class given is binding.
Data set [3] has as its system PD-L1. The experiment in a line: Flow cytometry of PD-L1 expression in NCI-H157 cells. As to conditions: flow cytometry, 1, 2 and 5 mg/mL. The class given is cell-based. The procedure: (§2) NCI-H157 or LLC cells in a 6-well plate were treated with low, medium, and high doses of ME-2 at 1, 2, and 5 mg/mL, respectively, for corresponding time, and the cells were stained with a fluorescent antibody. Fluorescence intensity was measured by flow cytometry.
(In general: Flow cytometry measures light scatter and fluorescence of single cells or particles in a stream.)

The test system of data set [4] is LLC cells. The experiment in a line: CCK8 in vitro cytotoxicity assay, LLC. The data set is classed as cell-based, mouse. As to conditions: CCK8, gradient concentration, 24 h. The procedure: (§3) CCK8 was used to detect the cytotoxicity of ME-2 to NCI-H157 and LLC cells. H157 or LLC cells were inoculated overnight in 96-well cell culture plate at a concentration of 1×10^4/mL. The gradient concentration of ME-2 was prepared in the medium, and CCK8 solution was added into the 96-well cell culture plate after 24 h of action. OD values were measured at 450 nm by an enzyme-linked immunosorbent assay (ELISA) instrument.

The test system of data set [5] is NCI-H157 cells. The data set can be described thus: Co-culture of H157 tumor cells with stimulated Jurkat T cells, crystal violet staining. As to conditions: gradient dosing, co-culture 24 h. The class given is cell-based. The procedure:
In order to further evaluate the anti-tumor effect of ME-2 in the experiment of co-culture of tumor cells and T cells, H157 cells were inoculated into a 24-well culture plate, subjected to gradient dosing treatment for time needed, and co-cultured with stimulated Jurkat T cells for 24 h. The tumor survival was observed under a microscope after 4% polyformaldehyde fixation and crystal violet staining. The specific manifestation was the difference in the depth of staining in the different dosages and concentrations of ME-2.

Data set [6] deals with PD-L1 protein (Homo sapiens, UniProt Q9NZQ7). The experiment in a line: SPR affinity analysis with PD-L1 protein (Biacore 8K, CM5 chip). The class given is binding. On the technique in general: Surface plasmon resonance follows binding to a sensor surface in real time, without labels.
Chain of PD-L1 protein (Q9NZQ7 19-290, species assumed): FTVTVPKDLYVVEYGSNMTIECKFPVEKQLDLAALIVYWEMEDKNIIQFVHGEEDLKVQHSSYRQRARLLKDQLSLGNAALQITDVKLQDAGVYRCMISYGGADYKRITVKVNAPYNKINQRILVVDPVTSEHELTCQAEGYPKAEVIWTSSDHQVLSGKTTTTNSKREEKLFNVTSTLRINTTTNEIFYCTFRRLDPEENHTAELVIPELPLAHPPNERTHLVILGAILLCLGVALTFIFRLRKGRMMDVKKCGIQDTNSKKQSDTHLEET
Procedure: Biacore 8K high-throughput molecular interaction analysis system, CM5 chip, and phosphate buffered saline (PBS) buffer as the mobile phase of the instrument were used in the whole process of the surface plasmon resonance experiment. The PD-L1 was coupled to the activated CM5 chip using an amino coupling kit. […] After 60 s of dissociation, the chip was regenerated with 10 mM glycine-HCl (pH2.0) and 3 M NaCl at a flow rate of 30 L/min for 30 s. Biacore Evaluation 3.1 software and GraphPad Prism 8.0 software were used to analyze the data and obtain the response curve.
Data set [7] concerns PD-L1. The data set can be described thus: Western blot of PD-L1 expression in mouse lung cancer LLC cells. As to conditions: concentration and time gradient, most significant at 2 mg/mL, 24 h. The data set is classed as cell-based. The procedure: as §1
Concentration and time gradient ME-2 were applied to act on four tumor cell lines with high expression of PD-L1, respectively. The Western blot method was used for detection, and the experimental method was shown above. […] The downregulation of tumor cell baseline PD-L1 was concentration dependent (see FIG. 5A) and time dependent (see FIG. 5B). […]
For orientation: Immunoblotting shows a protein as a band on a membrane.

Data set [8] has as its system LLC lung cancer transplanted tumor. The data set can be described thus: Mouse lung cancer (LLC) transplanted tumor model.
Data set [9] concerns PD-L1. The data set can be described thus: Western blot of PD-L1 expression in tumor cells with high expression of PD-L1 (NCI-H157, U2OS, SW620). The data set is classed as cell-based, human. As to conditions: concentration and time gradient, most significant at 2 mg/mL, 24 h. The procedure: as §1
Concentration and time gradient ME-2 were applied to act on four tumor cell lines with high expression of PD-L1, respectively. The Western blot method was used for detection, and the experimental method was shown above. […] The downregulation of tumor cell baseline PD-L1 was concentration dependent (see FIG. 5A) and time dependent (see FIG. 5B). The downregulation of PD-L1 was most significant when the dose concentration was 2 mg/mL and the administration time was 24 h.
A Western blot was used to detect the effects of Auricularia auricula total polysaccharide METP and Auricularia auricula deacetylated monomeric polysaccharide dME-2 on the expression of PD-L1 in H157 cells, and Auricularia auricula monomeric polysaccharide ME-2 was used as a positive control. The experimental procedure was described in Example 1.

For data set [10], the target named is PD-L1 and PD-1 protein (Homo sapiens, UniProt Q9NZQ7). The data set can be described thus: SPR competitive experiment between ME-2 and PD-1 for PD-L1. The data set is classed as binding. The text has this: Biacore 8K high-throughput molecular interaction analysis system, CM5 chip, and phosphate buffered saline (PBS) buffer as the mobile phase of the instrument were used in the whole process of the surface plasmon resonance experiment. The PD-L1 was coupled to the activated CM5 chip using an amino coupling kit. […] The ME-2 polysaccharide solution with different concentrations was passed through the coupling channel and the blank channel at a certain velocity by using the running buffer. After 60 s of dissociation, the chip was regenerated with 10 mM glycine-HCl (pH2.0) and 3 M NaCl at a flow rate of […] for 30 s. Biacore Evaluation 3.1 software and GraphPad Prism 8.0 software were used to analyze the data and obtain the response curve.
Chain of PD-L1 and PD-1 protein (Q9NZQ7 19-238 limits assumed, species assumed): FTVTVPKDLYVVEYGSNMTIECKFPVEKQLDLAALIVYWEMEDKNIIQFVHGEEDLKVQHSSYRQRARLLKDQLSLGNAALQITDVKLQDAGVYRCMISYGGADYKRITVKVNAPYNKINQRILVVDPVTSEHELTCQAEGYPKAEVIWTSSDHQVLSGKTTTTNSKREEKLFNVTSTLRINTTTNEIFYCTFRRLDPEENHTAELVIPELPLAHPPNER

Data set [11] concerns PD-L1. The data set can be described thus: Flow cytometry of PD-L1 expression in LLC cells. The class given is cell-based, mouse. As to conditions: flow cytometry, 1, 2 and 5 mg/mL. The procedure: as §2
For data set [12], the target named is T1, PD-L1/PD-1 interaction (Homo sapiens, UniProt Q9NZQ7).
T1 construct: NCI-H157 cells were inoculated on a 24-well cell culture plate; endogenous in cells; host or cells: NCI-H157
T1 sequence (Q9NZQ7 19-290): as the sequence (Q9NZQ7 19-290, species assumed) above
The data set can be described thus: PD-1Fc binding to PD-L1 on NCI-H157 cells (flow cytometry and confocal). As to conditions: 24 h of ME-2 treatment, human recombinant PD-1Fc, dose-dependent. The data set is classed as cell-based. The procedure: NCI-H157 cells were inoculated on a 24-well cell culture plate and subjected to gradient dosing treatment for time needed after cell adhesion. The cells were fixed at room temperature with a 4% solution of paraformaldehyde. The cells were washed with PBS buffer several times. An appropriate amount of human recombinant PD-1Fc protein was added to the fixed cells and incubated for 1 h, and the cells were washed with PBS buffer several times. Anti-human IgG (Alexa Fluor 488) fluorescent secondary antibody was added and incubated for 30 min. After nuclear staining, a glycerol sealing layer was applied. Green fluorescence signals were observed under a fluorescence microscope and photographed for statistics, or the fluorescence intensity was measured by flow cytometry.

In data set [13] the test system is NCI-H157 cells. The data set can be described thus: CCK8 in vitro cytotoxicity assay, NCI-H157. The class given is cell-based. As to conditions: CCK8, gradient concentration, 24 h. The procedure: as §3

“Also recorded” adds a separate entry of the source.

Chain of PD-1 protein (Q15116 25-288): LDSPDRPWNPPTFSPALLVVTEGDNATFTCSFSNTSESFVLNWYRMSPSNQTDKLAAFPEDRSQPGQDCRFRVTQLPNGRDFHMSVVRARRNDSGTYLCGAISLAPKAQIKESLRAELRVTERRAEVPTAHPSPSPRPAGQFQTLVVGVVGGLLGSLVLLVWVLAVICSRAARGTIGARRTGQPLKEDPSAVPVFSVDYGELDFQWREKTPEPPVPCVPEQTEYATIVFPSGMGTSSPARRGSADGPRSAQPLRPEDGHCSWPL

As to “high-acetyl glucuronoxylogalactoglucomannan [ME-2]”, in [1], the “IFN-γ-induced expression of PD-L1 in A549 cells” value is given as “significantly down-regulated”, the “IFN-γ-induced expression of PD-L1 in HepG-2 cells” value is “significantly down-regulated” and the “IFN-γ-induced expression of PD-L1 in MCF-7 cells” value is given as “significantly down-regulated”. Moreover, in data set [2], the “affinity to PD-1 protein (in words)” value is listed as “no affinity”. Also, in data set [3], the “PD-L1 fluorescence intensity in NCI-H157 cells” value is recorded as “concentration dependent inhibition”. For the same substance, the “cytotoxicity / proliferation of LLC cells” value in data set [4] is “no obvious cytotoxicity”. Also, the “sensitivity of NCI-H157 cells to killing by Jurkat T cells” value in data set [5] is given as “more sensitive to the killing of Jurkat T cells”. In addition, the “affinity to PD-L1 protein (in words)” value in [6] is given as “strong affinity”. Also, the “abundance of PD-L1 in LLC cells” value in data set [7] is reported as “significantly down-regulated”. In addition, in data set [8] (ME-2 100 mg/kg), the “HE staining of vital organs of mice” value is listed as “did not cause organic changes” and the “serum indexes of mice” value is “consistent with those of the control group”. Moreover, the “tumor growth in model mice” value in data set [8] (ME-2 100 mg/kg, oral administration, 100 mg/kg) is “obvious better than a positive drug; also recorded: effectively inhibited”. In data set [8] (ME-2 at the dosage used (100 mg/kg)), the “toxic and side effects on mice” value was “no obvious toxic and side effects”. Further, in data set [8] (ME-2 experiment, all groups), the “body weight of mice” value is listed as “no significant difference”. Besides, the “PD-L1 mRNA level in mouse tumors” value in data set [8] (qPCR, ME-2 treated mice) is on record as “significantly reduce”. In data set [9], the “abundance of PD-L1 in NCI-H157 cells” value is given as “significantly down-regulated”, the “abundance of PD-L1 in SW620 cells” value is given as “significantly down-regulated” and the “abundance of PD-L1 in U2OS cells” value was “significantly down-regulated”. Also, the “binding of PD-L1 and PD-1 protein with increasing concentration of ME-2” value in [10] is on record as “significantly inhibited”. Moreover, the “PD-L1 fluorescence intensity in LLC cells” value in data set [11] was “concentration dependent inhibition”. Further, in data set [12], the “PD-1 binding to PD-L1 in NCI-H157 cells” value was “decreased”. The “cytotoxicity / proliferation of NCI-H157 cells” value in data set [13] was “no obvious cytotoxicity”.

The values are drawn from US20250049869A1, “USE OF AURICULARIA AURICULA TOTAL POLYSACCHARIDE OR MONOMERIC POLYSACCHARIDE IN PREPARATION OF PD-L1 INHIBITOR” (priority 2023, published 2025).
